Results taken from patent US20250009843A1, “COMPOSITIONS AND METHODS FOR TREATMENTS BY MODULATION OF EXCITABLE TISSUES ACTIVITIES, AND FOR ANTIMICROBIAL APPLICATIONS” (priority 2021, published 2025).

What was measured:
[1] = tested on: dorsal root ganglia (DRG) (sensory) neurons; assay: Single cell patch clamp on DRG neurons (sodium current, action potentials); format: cell-based, rat
Procedure: Dorsal Root Ganglia (DRG) sensory neurons were extracted from […] (Cdram). The DRG explants were dissected from the cervical and thoracic regions of the spine of neonatal rat pups (P5) and placed in cold HBSS (lx) without Ca^2+/Mg^2+ (Invitrogen, USA). After cleaning the remnants of peripheral nerve processes, DRGS were seeded in 12-well glass-coated laminin plates. Cells were feed every 2/3 days and they were processed for single cell patch clamping.
Whole cell patch clamp configuration was used to record from 100 day iPSC derived neurons and DRG neurons. […]
Recordings were made using the EPC10 patch clamp amplifier from HEKA. Voltage-dependent Na^+ and K^+ currents were recorded in voltage clamp mode from a holding potential of −70 mV; voltage step depolarization was applied up to +20 mV in 10 mV increments and recorded for 200 ms. All data were recorded unfiltered for voltage and current clamp recording at 50.0 kHz and 20.0 kHz, respectively.
Intrinsic firing properties of neurons were recorded in current clamp mode, with step current injections from a holding value of −5 pA up to +45 pA, for 500 ms, in 10 pA increments. Spontaneous action potential (AP) was recorded in current clamp mode at zero current injection (resting membrane potential) just after whole cell configuration was achieved. […]

[2] = tested on: dorsal root ganglia (DRG) (sensory) neurons; settings: literature value; cited from earlier work
[3] = tested on: cortical neurons; assay: Patch clamp of cortical neurons (sodium current); format: cell-based; settings: 1 μg/ml; FIG. 10C
[4] = tested on: DRG cells; assay: Microelectrode Array (MEA) electrical activity of capsaicin-stimulated DRG cells; format: cell-based; settings: dose range 10-1000 μg/ml; FIG. 3B
[5] = tested on: E. coli; assay: Optical density assay of antimicrobial effect; format: cell-based; settings: for E. coli growth (optical density as percentage of control): 16 hours incubation, polymers and conjugates 1-5 mg/ml, PLA 0.01-0.5 mg/ml
Procedure: As an example of this Hydrobloc prototypes and PLA 1.9 kDa at various concentrations were incubated with E. coli in wells. If microbial growth occurs, then the optical density increases reflecting the colloidal nature of bacterial cells. As a control a blank well is prepared containing growth medium and saline. The results after 16 hours incubation are presented in the figure as a percentage of control. Panel A: Optical density results for various Hydrobloc prototypes and related test materials.
(§1) Hyaluronic acid (2.2-2.4 MDa) or PEG (10 kDa) was used as base polymer conjugated to Poly-L-Arginine (1.9 kDa or 15-70 kDa) as the AMP in varying mass/mass ratios of conjugation, and at different concentrations. Controls included empirical admixtures of the polymer/AMP as well as just the polymer or AMP.
Principle: Antimicrobial test materials added to wells at various concentrations, wells seeded with microbe. Microbial growth increase the optical density (OD)—assay monitors ability of microbe to grow in presence of test material. […] The microbe used was E. Coli. The results are shown in FIG. 13 with the values presented as a percentage of control (blank). […] The OD is ˜≤0.0 at all concentrations (0.01-0.5 mg/ml). Overall statistical significance is seen with 0.25 mg/ml and 5 mg/ml.

[6] = tested on: DRGs; format: cell-based; settings: 24-72 hours, 2.5 mg/ml of HA or equivalent
Procedure: (§2) FIG. 4: Data of the effect of various peptide drug embodiments and peptide alone on metabolic activity and viability of cell types (DRG: dorsal root ganglion; hChon: human normal chondrocytes; OA: human OA chondrocytes). n=3 in all cases; all tested at 2.5 mg/ml of HA or equivalent using gram:gram ratio (See Table). Details on test materials given in below table. […] Panel B: Viability assessed using Live/Dead assay. No significant difference between peptide drug at 24-72 hours in DRGs compared to control.

[7] = tested on: E. coli; assay: Kirby-Bauer disk diffusion susceptibility test; format: cell-based; settings: BP12P03 1-10 mg/ml; PLA 0.5 mg/ml
Procedure: as §1
(§3) Principle: Disks were saturated with antimicrobial test material and place on agar seeded with microbe. test material diffuses out and after incubation diameter of the clear zone is proportional to potency against the microbe. BP12P03 at 1 mg/ml −10 mg/ml; PLA (1.9 kDA) at 0.5 mg/ml were tested. Microbes used were S. aureus, S. epidermis and E. coli.

[8] = tested on: S. aureus; assay: Kirby-Bauer disk diffusion susceptibility test; format: cell-based; settings: BP12P03 1-10 mg/ml; PLA 0.5 mg/ml
Procedure: as §1, §3

[9] = tested on: S. epidermis; assay: Kirby-Bauer disk diffusion susceptibility test; format: cell-based; settings: BP12P03 1-10 mg/ml; PLA 0.5 mg/ml
Procedure: as §1, §3

[10] = tested on: TRPV1 pathway in cortical neurons; assay: Calcium imaging of cortical neurons (capsaicin, glutamic acid); format: cell-based; settings: 1 μg/ml
Procedure: TRPV1 channels on neurons open in response to stimuli like capsaicin. Once open cations like calcium flow into the cell, which triggers action potentials and the sensation of pain. Cells tested were cortical neurons, n=3 unless noted. Panel A: Calcium imaging is used to measure calcium flow across neural cell membranes. Cells treated in sequence with no chemical (control), PLA (1.9 kDa at 1 μg/ml), capsaicin, and then glutamic acid. […] This is an effect seen by TRPV1 agonists that are used as analgesics such as capsaicin.

[11] = tested on: DRG: dorsal root ganglion; hChon: human normal chondrocytes; OA: human OA chondrocytes; format: cell-based; settings: 24-72 hours; 2.5 mg/ml of HA or equivalent by gram:gram ratio; three cell types
Procedure: as §2

NC1=N[C@H](O)[C@H]2[C@H]3O[C@]4(O)O[C@@H]([C@@H](O)[C@@]2(N1)[C@@H]4O)[C@]3(O)CO [TTX, tetrodotoxin]
Percentage reduction of sodium current (control) [1]: approximately 99%

CCN(CC)CC(=O)Nc1c(C)cccc1C [Lidocaine]
Reduction of sodium current reported in the literature [2]: 38%

Poly-L-Arginine [PLA 1.9 kDa]
Block of sodium current [3]: time dependent effect—getting stronger with time
Concentration at which most suppression of spike count is seen [4]: 10 µg/mL
E. coli growth (optical density as percentage of control) [5]: potent giving quantifiable antimicrobial effects at all concentrations tested
E. coli growth (optical density as percentage of control) ([5]; listed as PLA): very potent
Optical density (OD) ([5]; all concentrations (0.01-0.5 mg/ml)): ≤ 0.0
Viability (Live/Dead) [6]: best viability profile
Activity in disk diffusion [7]: activity against all tested species
Activity in disk diffusion [8]: activity against all tested species
Activity in disk diffusion [9]: activity against all tested species
Capsaicin (TRPV1 pathway) response ([10]; cortical neurons, n=3): blocks the capsaicin (TRPV1 pathway response)
Glutamate response ([10]; glutamic acid after capsaicin): glutamate response is unaffected

Poly-L-arginine hydrochloride [Hydrobloc C01]
Viability (Live/Dead) [6]: negatively affect viability
Metabolic activity (Alamar Blue) [11]: negatively affect metabolic activity
